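Method: 48-hour compound exposure of cells in 96-well plates, five concentrations, linear interpolation of endpoints. Abbreviation: GI50, concentration required for 50% inhibition of growth. TGI: total growth inhibition.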
Assays:
Assay in all cases: inhibition of tumour cell growth, NCI panel, 48 h
SF-539 CNS = test system: SF-539 CNS
MOLT-4 leukemia = test system: MOLT-4 leukemia
NCI/ADR-RES ovarian = test system: NCI/ADR-RES ovarian
OVCAR-5 ovarian = test system: OVCAR-5 ovarian
HCT-15 colon = test system: HCT-15 colon
HT29 colon = test system: HT29 colon
SK-OV-3 ovarian = test system: SK-OV-3 ovarian
ACHN renal = test system: ACHN renal
K-562 leukemia = test system: K-562 leukemia
CCRF-CEM leukemia = test system: CCRF-CEM leukemia
SK-MEL-5 melanoma = test system: SK-MEL-5 melanoma
T-47D breast = test system: T-47D breast
UACC-257 melanoma = test system: UACC-257 melanoma
A498 renal = test system: A498 renal
UO-31 renal = test system: UO-31 renal
CAKI-1 renal = test system: CAKI-1 renal
IGROV1 ovarian = test system: IGROV1 ovarian
RXF 393 renal = test system: RXF 393 renal
HOP-62 NSCLC = test system: HOP-62 NSCLC
KM12 colon = test system: KM12 colon
MALME-3M melanoma = test system: MALME-3M melanoma
HCC-2998 colon = test system: HCC-2998 colon
LOX IMVI melanoma = test system: LOX IMVI melanoma
786-0 renal = test system: 786-0 renal
EKVX NSCLC = test system: EKVX NSCLC
OVCAR-4 ovarian = test system: OVCAR-4 ovarian
SW-620 colon = test system: SW-620 colon
SK-MEL-2 melanoma = test system: SK-MEL-2 melanoma
NCI-H23 lung = test system: NCI-H23 lung

With `CCCCN(CCCC)CC(O)c1ccc(OCc2ccccc2)c2ccccc12` (stereo not drawn) the GI50 (SF-539 CNS) was 5.09 µM, the TGI (SF-539 CNS) was 17 µM and the GI50 (MOLT-4 leukemia) was 3.54 µM. The TGI (MOLT-4 leukemia) was 16.5 µM, the GI50 (NCI/ADR-RES ovarian) was 3.74 µM and the TGI (NCI/ADR-RES ovarian) was 16 µM. For the same compound, the GI50 (OVCAR-5 ovarian) was 3.86 µM, the TGI (OVCAR-5 ovarian) was 16.2 µM and the GI50 (HCT-15 colon) was 2.58 µM. It also gave a TGI (HCT-15 colon) of 7.47 µM, a GI50 (HT29 colon) of 1.52 µM and a TGI (HT29 colon) of 4.55 µM. For the same compound, the GI50 (SK-OV-3 ovarian) was 8.31 µM, the TGI (SK-OV-3 ovarian) was 22.7 µM and the GI50 (ACHN renal) was 4.76 µM. For the same compound, the TGI (ACHN renal) was 18 µM, the GI50 (K-562 leukemia) was 2.82 µM and the TGI (K-562 leukemia) was 10.4 µM. The GI50 (CCRF-CEM leukemia) was 3.35 µM, the TGI (CCRF-CEM leukemia) was 16.3 µM and the GI50 (SK-MEL-5 melanoma) was 1.88 µM. The TGI (SK-MEL-5 melanoma) was 3.69 µM, the GI50 (T-47D breast) was 3.74 µM and the TGI (T-47D breast) was 14.9 µM. It also gave a GI50 (UACC-257 melanoma) of 5.21 µM, a TGI (UACC-257 melanoma) of 17.2 µM and a GI50 (A498 renal) of 3.41 µM. The TGI (A498 renal) was 14.5 µM, the GI50 (UO-31 renal) was 0.974 µM and the TGI (UO-31 renal) was 7.13 µM. It also gave a GI50 (CAKI-1 renal) of 1.98 µM, a TGI (CAKI-1 renal) of 10.9 µM and a GI50 (IGROV1 ovarian) of 1.96 µM. The TGI (IGROV1 ovarian) was 16.7 µM, the GI50 (RXF 393 renal) was 2.39 µM and the TGI (RXF 393 renal) was 4.93 µM. The GI50 (HOP-62 NSCLC) was 5.57 µM, the TGI (HOP-62 NSCLC) was 19.7 µM and the GI50 (KM12 colon) was 3.4 µM. For the same compound, the TGI (KM12 colon) was 19.5 µM, the GI50 (MALME-3M melanoma) was 2.27 µM and the TGI (MALME-3M melanoma) was 7.09 µM. For the same compound, the GI50 (HCC-2998 colon) was 2.36 µM, the TGI (HCC-2998 colon) was 6.34 µM and the GI50 (LOX IMVI melanoma) was 1.94 µM. It also gave a TGI (LOX IMVI melanoma) of 4.78 µM, a GI50 (786-0 renal) of 2.56 µM and a TGI (786-0 renal) of 6.25 µM. The GI50 (EKVX NSCLC) was 5.66 µM, the TGI (EKVX NSCLC) was 20.2 µM and the GI50 (OVCAR-4 ovarian) was 6.22 µM. It also gave a TGI (OVCAR-4 ovarian) of 17.4 µM, a GI50 (SW-620 colon) of 3.32 µM and a TGI (SW-620 colon) of 14.5 µM. The GI50 (SK-MEL-2 melanoma) was 3.39 µM, the TGI (SK-MEL-2 melanoma) was 12 µM and the GI50 (NCI-H23 lung) was 3.01 µM. It also gave a TGI (NCI-H23 lung) of 13 µM.

From PubChem BioAssay (NCI)
